Patent US20090111781A1, “Use of Cymipristone Type Compounds in Aids Treatment” (SHANGHAI THREE-ALLIANCE BIOTECHNOLOGIES CO., LTD., priority 2005, published 2009)
In brackets after ≈: the same amount, converted by molar mass. One block for each molecule: values may come before it.

Legend:
[1] = MTT toxicity on PBMC infected by HIV-1 AZT-sensitive strain 018a; conditions: human
Experimental: (§1) Collect cells with curette, infect cells with 10^−2 AZT sensitive (018a) or AZT resistant (018c) virus strain liquid, and adsorb for 2 hours, Wash off unabsorbed virus with 1640 culture medium without serum, prepare cells infected by virus to 1×10^6/ml with culture solution, and inoculate on 96-pore culture plate, 100 μl/pore. […] Set cell control group and virus infected cell control group. Incubate under 37° C. and 5% CO2. On the fourth day (96 hours), pipette out the supernatant liquid and store under −20° C. for determination of HIV-1 P24 antigen titer and calculation of drug inhibitory action. Add MTT staining to cells for determination of cytotoxicity. Determination of cytotoxicity by MTT staining: Add 10 μl of 5 mg/ml MTT stain into each pore, continue to incubate under 37° C., 5% CO2 and saturated humidity for 4 hours. […] Determine the HIV-1 P24 antigen titer according to the operation procedure provided by the HIV-1 P24 antigen reagent kit. Compare the drug-added group with virus control group. […] Calculation method of 50% toxic concentration (CC50), 50% effective concentration (EC50) and selection index (SI): […]

[2] = system: HIV-1 AZT-sensitive strain 018a P24 antigen; assay: Inhibition of HIV-1 018a P24 antigen in PBMC cell culture; assay type: cell-based; conditions: for EC50: Human immunodeficiency virus 1, PBMC, 2 h, administration after adsorbing 2 hours
Experimental: (§2) Collect cells with curette, infect cells with 10^−2 AZT sensitive (018a) or AZT resistant (018c) virus strain liquid, and adsorb for 2 hours, Wash off unabsorbed virus with 1640 culture medium without serum, prepare cells infected by virus to 1×10^6/ml with culture solution, and inoculate on 96-pore culture plate, 100 μl/pore. […] Set cell control group and virus infected cell control group. Incubate under 37° C. and 5% CO2. On the fourth day (96 hours), pipette out the supernatant liquid and store under −20° C. for determination of HIV-1 P24 antigen titer and calculation of drug inhibitory action. Add MTT staining to cells for determination of cytotoxicity. Determination of cytotoxicity by MTT staining: Add 10 μl of 5 mg/ml MTT stain into each pore, continue to incubate under 37° C., 5% CO2 and saturated humidity for 4 hours. […] Determine the HIV-1 P24 antigen titer according to the operation procedure provided by the HIV-1 P24 antigen reagent kit. Compare the drug-added group with virus control group. […] Calculation method of 50% toxic concentration (CC50), 50% effective concentration (EC50) and selection index (SI):
(§3) (3) Calculation Method of Selection Index (SI) on HIV-1 P24 Antigen in Cell Culture SI=CC50/EC50

[3] = MTT toxicity on PBMC infected by HIV-1 AZT-resistant strain 018c; conditions: human
Experimental: as §1

[4] = system: HIV-1 AZT-resistant strain 018c P24 antigen; assay: Inhibition of HIV-1 018c P24 antigen in PBMC cell culture; assay type: cell-based; conditions: 018c; for EC50: Human immunodeficiency virus 1, PBMC, 2 h, PBMC, administration after adsorbing 2 hours; for SI: SI=CC50/EC50
Experimental: as §2, §3

[5] = molecular target: T1, glucocorticoid receptor of rat hepatic cytoplasm (Rattus norvegicus, UniProt P06536); assay: Competition inhibition of [3H]-dexamethasone binding in rat hepatic cytoplasm; conditions: read-out: Inhibition rate on binding of [3H]-dexamethasone
T1 construct: centrifuge at 175000 g for 1 hour, and take out the supernatant liquid as reserve; from tissue; host or cells: liver cytosol (175000 g supernatant) of adrenalectomised female SD rats
T1 sequence (P06536 1-795): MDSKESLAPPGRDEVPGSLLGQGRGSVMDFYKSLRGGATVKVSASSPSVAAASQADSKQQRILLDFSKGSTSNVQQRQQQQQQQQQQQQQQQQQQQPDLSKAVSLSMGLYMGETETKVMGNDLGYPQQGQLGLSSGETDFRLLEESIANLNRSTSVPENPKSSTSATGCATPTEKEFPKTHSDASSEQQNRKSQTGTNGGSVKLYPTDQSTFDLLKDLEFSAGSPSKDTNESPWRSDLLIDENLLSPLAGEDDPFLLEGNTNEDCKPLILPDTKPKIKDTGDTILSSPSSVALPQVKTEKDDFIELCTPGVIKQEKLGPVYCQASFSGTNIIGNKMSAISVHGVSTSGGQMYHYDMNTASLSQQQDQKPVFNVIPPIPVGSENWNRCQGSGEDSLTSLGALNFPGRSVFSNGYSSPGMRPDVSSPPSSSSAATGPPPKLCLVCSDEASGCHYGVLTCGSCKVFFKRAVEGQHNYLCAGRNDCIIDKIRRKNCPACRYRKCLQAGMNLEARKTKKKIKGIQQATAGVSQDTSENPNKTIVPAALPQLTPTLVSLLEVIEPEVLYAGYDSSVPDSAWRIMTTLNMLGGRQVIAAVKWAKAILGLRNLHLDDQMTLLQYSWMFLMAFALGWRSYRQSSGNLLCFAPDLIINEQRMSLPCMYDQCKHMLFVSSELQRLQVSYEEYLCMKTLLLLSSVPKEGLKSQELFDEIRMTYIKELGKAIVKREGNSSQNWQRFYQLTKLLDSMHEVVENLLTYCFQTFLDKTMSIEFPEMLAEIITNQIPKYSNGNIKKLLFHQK
Experimental: Clean female SD rats, body weight 200-250 g, are fed with certain quantity of food and freely drink water. The temperature is controlled at about 24° C. and an illumination cycle are for 11 hours by day and 13 hours at night. All animals are observed for 1 week before experiment. Incisions are made on two sides below arch of ribs on dorsal position of rats to extirpate adrenal glands. After operation, the rats are fed with physiological saline to maintain water-electrolyte balance. On the third day after operation, animals are acutely executed. The liver is taken out immediately and placed in ice cold buffer solution; the blood should be washed off as much as possible. Take certain quantity of tissue, add buffer solution (1:4), cut the tissue with scissors, intermittently homogenize the tissue under low temperature, centrifuge at 175000 g for 1 hour, and take out the supernatant liquid as reserve. […] Then carry out the competition inhibition experiment.

thymus gland cells = assay: Anti-glucocorticoid activity test, [3H]-TdR incorporation in rat thymus gland cells; assay type: cell-based; conditions: dexamethasone 6×10^−8 mol/L used singly
Experimental: Clean female SD rats, body weight 200-250 g, are fed with certain quantity of food and freely drink water. The temperature is controlled at about 24° C. and an illumination cycle are for 11 hours by day and 13 hours at night. All animals are observed for 1 week before experiment. Rats are anesthetized with ethyl ether. Incisions are made on two sides below costal arch of ribs on dorsal position of rats to extirpate adrenal glands. The rats are fed with physiological saline after operation. On the seventh day, animals are acutely executed. Take out thymus gland to place in to HBSS buffer solution, wash twice, remove connective tissue, cut the tissue with scissors, lightly grind with homogenizer, filter with three layers of gauze, and centrifuge the filtrate for 5 min (500 rpm). Wash the precipitated cells twice with HBSS, re-suspend the cells in RPMI1640 culture medium for cell count and cell survival rate determination, and adjust cell concentration to 1×10^7/ml. Determination of anti-glucocorticoid activity: Add tested compound into culture medium, reaction concentration 6×10^−[…], and place in 37° C. incubator for 3 hours. Add thymus gland cells to make cell concentration to become 10^7/ml and incubate at 37° C. for 3 hours. Add 1 μCi of label substance, mix, and incubate for 1 hour. Add 100 μl of ice cold 5% trichloroacetic acid to end the reaction. Place the test tube on ice and wash twice with 2 ml of ice cold 5% trichloroacetic acid and centrifuge twice, 500 rpm×5 min, Add 0.5 ml of 1N NaOH to dissolve the precipitated cells, pipet out the liquid, dry the residue with cotton stick, place into same scintillation bottle, and determine the radioactivity by liquid scintillation counter.
Calculate the incorporation rate of [^3H]-TdR:
In which: T=[^3H]-TdR count without presence of compound, Td=count with presence of compound, and NSB=non-specific adsorption.
Inhibition rate=100%−incorporation rate

[6] = 50% toxic concentration CC50, Average
[7] = 50% toxic concentration CC50, Experiment 1
[8] = 50% toxic concentration CC50, Experiment 2

SMILES: CC#C[C@]1(O)CC[C@H]2[C@@H]3CCC4=CC(=O)CCC4=C3[C@@H](c3ccc(N(C)C)cc3)C[C@@]21C [Mifepristone, mifepristone]
- CC50 at 96 h ([1]; 50% toxic concentration CC50, Average, PBMC, 018a): 83.6 µg/mL (≈ 195 µM)
- CC50 at 96 h ([1]; 50% toxic concentration CC50, Experiment 1, PBMC, 018a): 69.4 µg/mL (≈ 162 µM)
- CC50 at 96 h ([1]; 50% toxic concentration CC50, Experiment 2, PBMC, 018a): 97.8 µg/mL (≈ 228 µM)
- EC50 ([2]; Average, PBMC): 12.4 µg/mL (≈ 28.8 µM)
- EC50 ([2]; Experiment 1, PBMC): 12.4 µg/mL (≈ 28.9 µM)
- EC50 ([2]; Experiment 2, PBMC): 12.4 µg/mL (≈ 28.8 µM)
- CC50 at 96 h [3, 6]: 89.9 µg/mL (≈ 209 µM)
- CC50 at 96 h [3, 7]: 105 µg/mL (≈ 244 µM)
- CC50 at 96 h [3, 8]: 74.7 µg/mL (≈ 174 µM)
- EC50 ([4]; Average): 10.1 µg/mL (≈ 23.5 µM)
- EC50 ([4]; Experiment 1): 10.4 µg/mL (≈ 24.2 µM)
- EC50 ([4]; Experiment 2): 9.84 µg/mL (≈ 22.9 µM)

SMILES: Cc1cn([C@H]2C[C@H](N=[N+]=[N-])[C@@H](CO)O2)c(=O)[nH]c1=O [AZT, zidovudine]
- CC50 at 96 h ([1]; 50% toxic concentration CC50): 58.8 µg/mL (≈ 220 µM)
- EC50 ([2]; Average, PBMC): < 0.0064 µg/mL
- EC50 ([2]; Experiment 1, PBMC): < 0.0061 µg/mL
- EC50 ([2]; Experiment 2, PBMC): < 0.0064 µg/mL
- SI ([2]; SI=CC50/EC50, Average): 10275.78
- SI ([2]; SI=CC50/EC50, Experiment 1): 9193.75
- SI ([2]; SI=CC50/EC50, Experiment 2): 11357.81
- CC50 at 96 h [3, 6]: 74.3 µg/mL (≈ 278 µM)
- CC50 at 96 h [3, 7]: 70.7 µg/mL (≈ 265 µM)
- CC50 at 96 h [3, 8]: 77.9 µg/mL (≈ 291 µM)
- EC50 ([4]; Average): 0.054 µg/mL (≈ 0.202 µM)
- EC50 ([4]; Experiment 1): 0.047 µg/mL (≈ 0.176 µM)
- EC50 ([4]; Experiment 2): 0.061 µg/mL (≈ 0.228 µM)
- SI ([4]; Average): 1390.87
- SI ([4]; Experiment 1): 1504.68
- SI ([4]; Experiment 2): 1277.05

- inhibition at 0.0008 µM [5]: 14.7 ± 7.34%
- inhibition at 0.0016 µM [5]: 10.4 ± 6.11%
- inhibition at 0.004 µM [5]: 24.8 ± 5.92%
- inhibition at 0.02 µM [5]: 39.4 ± 4.83%
- inhibition at 0.1 µM [5]: 60.4 ± 5.67%
- inhibition at 0.5 µM [5]: 89.2 ± 8.56%
SMILES: C[C@@H]1C[C@H]2[C@@H]3CCC4=CC(=O)C=C[C@]4(C)[C@@]3(F)[C@@H](O)C[C@]2(C)[C@@]1(O)C(=O)CO [Dexamethasone, dexamethasone]
- Incorporation rate of [3H]-TdR (thymus gland cells): 43.2%±3.7
